US10226043B2, “Controlled release biocidal salts” (Nevada Naturals Inc., priority 2005, dated 2019)

How the values were obtained:
[1] = test system: yeast cultures and A. niger; assay: Food-grade preservation test (aloe vera gel challenge); assay type: cell-based; details: for Log Reduction Values, day 0: day 0, initial challenge 7 logs; for Log Reduction Values, day 0 / Log Reduction Values, day 2 / Log Reduction Values, day 7 / Log Reduction Values, day 14: aloe vera gel pH 4-4.5; for Log Reduction Values, day 0 / Log Reduction Values, day 2 / Log Reduction Values, day 7 / Log Reduction Values, day 14 / Log Reduction Values, day 21 / Log Reduction Values, day 28 / Log Reduction Values, day 35 / Log Reduction Values, day 42: LAE-HCl 1725 ppm, LAE-lactate 1500 ppm, lactic acid 1500 ppm; for Log Reduction Values, day 21: day 21 (re-challenge of 7 logs at day 21); for Log Reduction Values, day 28: day 28 (re-challenges of 7 logs at day 21 and day 28); for Log Reduction Values, day 35: day 35, after the second re-challenge; for Log Reduction Values, day 42: day 42, after two re-challenges
Procedure: Aloe vera gel was prepared as a 50% dilution and dispensed as 20 g per container. Inoculum was prepared as 48 hour yeast cultures in tripticase soy broth and A. niger suspension. The inoculum was pooled and 100 μl added to each container. The preservatives were prepared as 1% solutions and added to each pre-labeled container. The samples were well mixed and stored. Recoveries were carried out at selected intervals (1:10 dilutions plated with sabourad dextrose agar. Pre-labeled plates were incubated at 25-30° C. for 48-72 hours; the pH of the samples was in the range of 4-4.5. The plates were removed from incubation, counted cfu recorded and converted to log reduction values.
Thereafter, re-challenges of 7 logs each were made at day 21 and day 28.

[2] = test system: bacteria that are part of the background flora of raw meat; assay: Antimicrobial activity of compounded films (beef loins in heat-sealed package); assay type: cell-based
Procedure: Two beef loins from a slaughterhouse were tested in a heat-sealed package simulating food packaging. The linear low density polyethylene film was compounded with 1% w/w LAE lactate biocidal salt of the invention. The log colony forming units (“CFU”) reduction values for bacteria that are part of the background flora of raw meat for both samples are 42 days indicate that there is a release of the salt of the invention from the polyethylene film to the surrounding beef surfaces.

[3] = test system: microbes such as bacteria, fungi and yeasts; details: general statement, no test described; cited from earlier work
[4] = test system: naturally-occurring aerobic bacteria of beef purge; assay: Beef purge test; assay type: cell-based; details: for Avg. CFU/g / % Reduction: 48 hours, refrigerated, 5% w/w (0.5 g in 10 ml purge); for % Reduction: vs control
Procedure: Two beef tenderloins containing a large quantity of purge (i.e., liquid surrounding raw meats; meat soaker pads were used to trap such liquids to the extent possible) were purchased at a local store. The purge was isolated from the packages and transferred to a series of test tubes and 10 ml of purge were placed in each test tube. To the test tubes was added 0.5 g of either LAE hydrochloride or LAE mono-laurate salts. The samples were mixed in a vortex mixer and serial dilutions were then plated on petrifilm for readings at time zero. The test tubes were then placed in the refrigerator and were again plated at 24 hours and 48 hours. The beef purge contained naturally-occurring aerobic bacteria. The goal is to have >99% reduction of the bacteria after 48 hours. LAE hydrochloride was tested at 0.5 g/10 ml w/v. […] Note that LAE-monolaurate contains about 66% of the active LAE cation.

Staphylococcus aureus = assay: Antimicrobial activity of LAE laurate, minimum inhibitory concentration on inoculated soya agar plates; assay type: cell-based; details: Staphylococcus aureus (Gram positive), 37° C., 48 hours, salt dissolved in 1,2-pentanediol
Procedure: (§1) 0.1 g of N^α-lauroyl-L-arginine ethyl ester laurate (LAE laurate) was dissolved in 100 g of 1,2-pentanediol so as to provide a solution containing 1,000 parts per million of the salt. The solution was then applied to soya agar plates which had been previously inoculated with the bacteria indicated below and subsequently incubated at 37° C. for 48 hours.

Bacillus subtilus = assay: as above; assay type: cell-based; details: Bacillus subtilus (Gram positive), 37° C., 48 hours, salt dissolved in 1,2-pentanediol
Procedure: as §1

Enterobacter aerogenes = assay: as above; assay type: cell-based; details: Enterobacter aerogenes (Gram negative), 37° C., 48 hours, salt dissolved in 1,2-pentanediol
Procedure: as §1

[5] = day 42, film compounded with 1% w/w salt, vs. control

CC(O)C(=O)O.CCCCCCCCCCCC(=O)N[C@@H](CCCNC(=N)N)C(=O)OCC [LAE lactate]
preservation compared with LAE-HCl ([1]; after the two re-challenges): superior to LAE-HCl | Log Reduction Values, day 0 [1]: 0 | Log Reduction Values, day 2 [1]: 3.7 | Log Reduction Values, day 7 [1]: 6.0 | Log Reduction Values, day 14 [1]: 6.0 | Log Reduction Values, day 21 [1]: 6.0 | Log Reduction Values, day 28 [1]: 3.9 | Log Reduction Values, day 35 [1]: 4.0 | Log Reduction Values, day 42 [1]: 0.7 | Log CFU/g, day 7 ([2]; day 7, beef loin in linear low density polyethylene film compounded with 1% w/w salt): 2.31 Log CFU/g | Log CFU/g, day 14 ([2]; day 14, beef loin in linear low density polyethylene film compounded with 1% w/w salt): 3.68 Log CFU/g | Log CFU/g, day 21 ([2]; day 21, beef loin in linear low density polyethylene film compounded with 1% w/w salt): 3.97 Log CFU/g | Log CFU/g, day 28 ([2]; day 28, beef loin in linear low density polyethylene film compounded with 1% w/w salt): 5.32 Log CFU/g | Log CFU/g, day 42 ([2]; day 42, beef loin in linear low density polyethylene film compounded with 1% w/w salt): 5.57 Log CFU/g | Day 42 % reduction vs. control [2, 5]: 97.9% | Day 42 log reduction vs. control [2, 5]: 1.67

CCCCCCCCCCCC(=O)N[C@@H](CCCNC(=N)N)C(=O)OCC [LAE, N^α-lauroyl-L-arginine ethyl ester]
biocidal ions needed to inhibit or kill microbes [3]: 2-128 ppm

CCCCCCCCCCCC(=O)N[C@@H](CCCN=C(N)N)C(=O)OCC.Cl [LAE-HCl]
Log Reduction Values, day 0 [1]: 0 | Log Reduction Values, day 2 [1]: 4.7 | Log Reduction Values, day 7 [1]: 6.0 | Log Reduction Values, day 14 [1]: 5.8 | Log Reduction Values, day 21 [1]: 6.0 | Log Reduction Values, day 28 [1]: 1.7 | Log Reduction Values, day 42 [1]: 0.0 | Avg. CFU/g [4]: <1.000E+02 CFU/g | % Reduction [4]: 99.999%

CC(O)C(=O)O (stereo not drawn) [Lactic acid]
Log Reduction Values, day 2 [1]: 1.0 | Log Reduction Values, day 7 [1]: 0.2 | Log Reduction Values, day 14 [1]: 0.0 | Log Reduction Values, day 35 [1]: 0.0 | Log Reduction Values, day 42 [1]: 0.0

[H]/N=C(\N/C(=N/[H])NCCCCCCNC(=N)NC(=N)Nc1ccc(Cl)cc1)Nc1ccc(Cl)cc1 [chlorhexidine]
biocidal ions needed to inhibit or kill microbes [3]: 2-8 ppm

Oc1cc(Cl)ccc1Oc1ccc(Cl)cc1Cl [triclosan]
biocidal ions needed to inhibit or kill microbes [3]: 2-40 ppm

N^α-lauroyl-L-arginine ethyl ester laurate [LAE laurate]
Minimum Inhibitory Concentration (Staphylococcus aureus): <40 ppm | Minimum Inhibitory Concentration (Bacillus subtilus): <25 ppm | Minimum Inhibitory Concentration (Enterobacter aerogenes): <45 ppm | Avg. CFU/g [4]: 2.82E+03 CFU/g | % Reduction [4]: 99.96% | performance compared with LAE-HCl ([4]; after 48 hours, based on the test requirements (>99% reduction)): performed as well as LAE-HCl
